Results from ChEMBL document CHEMBL1201862, “PubChem BioAssay data set” (2004).
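Tested at 5 concentrations; 48 h exposure; 96-well plates; endpoints linearly interpolated, else capped at highest concentration. The concentration for 50% growth inhibition is given as GI50.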 Activity calls are given as the source filed them. No stated cut-off is given here; in the data, active = GI50 up to about 1.1 µM and inactive = higher.

Legend:
Assay in all cases: DTP human tumour cell line panel, 48 h
786-0 = test system: 786-0
A549 = test system: A549
ACHN = test system: ACHN
HCC 2998 = test system: HCC 2998
HCT-116 = test system: HCT-116
M14 = test system: M14
MCF7 = test system: MCF7
MDA-MB-435 = test system: MDA-MB-435
NCI-H23 = test system: NCI-H23
NCI/ADR-RES = test system: NCI/ADR-RES
OVCAR-5 = test system: OVCAR-5
PC-3 = test system: PC-3
SK-MEL-2 = test system: SK-MEL-2
SNB-19 = test system: SNB-19
SNB-75 = test system: SNB-75
SW-620 = test system: SW-620
T47D = test system: T47D
U-251 = test system: U-251
UACC-257 = test system: UACC-257
UACC-62 = test system: UACC-62

| Structure (SMILES) | GI50 (786-0) | GI50 (A549) | GI50 (ACHN) | GI50 (HCC 2998) | GI50 (HCT-116) | GI50 (M14) | GI50 (MCF7) | GI50 (MDA-MB-435) | GI50 (NCI-H23) | GI50 (NCI/ADR-RES) | GI50 (OVCAR-5) | GI50 (PC-3) | GI50 (SK-MEL-2) | GI50 (SNB-19) | GI50 (SNB-75) | GI50 (SW-620) | GI50 (T47D) | GI50 (U-251) | GI50 (UACC-257) | GI50 (UACC-62) |
| --- | --- | --- | --- | --- | --- | --- | --- | --- | --- | --- | --- | --- | --- | --- | --- | --- | --- | --- | --- | --- |
| Cc1nc2c(O)nc3ccccc3c2o1 | > 100 µM (inactive) | > 100 µM (inactive) | > 100 µM (inactive) | > 100 µM (inactive) | > 100 µM (inactive) | > 100 µM (inactive) | > 100 µM (inactive) | > 100 µM (inactive) | > 100 µM (inactive) | > 100 µM (inactive) | > 100 µM (inactive) | > 100 µM (inactive) | > 100 µM (inactive) | > 100 µM (inactive) | > 100 µM (inactive) | > 100 µM (inactive) | > 100 µM (inactive) | > 100 µM (inactive) | > 100 µM (inactive) | > 100 µM (inactive) |
| N#CC(c1ccc(O)cc1)N1CCN(C(C#N)c2ccc(O)cc2)CC1 (stereo not given) | > 64.1 µM (inactive) | 99.3 µM (inactive) | > 100 µM (inactive) | > 100 µM (inactive) | > 100 µM (inactive) | > 100 µM (inactive) | > 100 µM (inactive) | > 100 µM (inactive) | > 100 µM (inactive) | 40.8 µM (inactive) | > 100 µM (inactive) | > 100 µM (inactive) | 68.2 µM (inactive) | 24.9 µM (inactive) | 19 µM (inactive) | > 100 µM (inactive) | 39.5 µM (inactive) | 22.3 µM (inactive) | > 100 µM (inactive) | 64.1 µM (inactive) |
| CC1=C(C)CC2C(=O)N(c3cc(C(C)(C)C)ccc3C(C)(C)C)C(=O)C2C1 (stereo not given) | 64.9 µM (inactive) | 69.5 µM (inactive) | 5.38 µM (inactive) | 52.6 µM (inactive) | 50 µM (inactive) | 52.1 µM (inactive) | 0.776 µM (active) | > 100 µM (inactive) | 94.4 µM (inactive) | > 100 µM (inactive) | > 100 µM (inactive) | 62.2 µM (inactive) | > 100 µM (inactive) | 23.1 µM (inactive) | 22.3 µM (inactive) | > 100 µM (inactive) | > 100 µM (inactive) | 47.1 µM (inactive) | > 100 µM (inactive) | 14.5 µM (inactive) |
| N#Cc1nc(C#N)n(S(=O)(=O)c2ccccc2)c1NS(=O)(=O)c1ccccc1 | > 100 µM (inactive) | > 100 µM (inactive) | > 100 µM (inactive) | > 100 µM (inactive) | > 100 µM (inactive) | > 100 µM (inactive) | > 100 µM (inactive) | > 100 µM (inactive) | > 100 µM (inactive) | > 100 µM (inactive) | > 100 µM (inactive) | > 100 µM (inactive) | > 31.6 µM (inactive) | > 100 µM (inactive) | > 65.3 µM (inactive) | > 100 µM (inactive) | > 100 µM (inactive) | > 100 µM (inactive) | > 100 µM (inactive) | > 100 µM (inactive) |
| Cc1ccc(-c2nc(N/N=C/c3ccc(O)cc3)c3ccccc3n2)cc1 | 22.8 µM (inactive) | 6.14 µM (inactive) | 7.21 µM (inactive) | 14.1 µM (inactive) | 14.1 µM (inactive) | 5.02 µM (inactive) | 10.2 µM (inactive) | 10.8 µM (inactive) | 7.31 µM (inactive) | 20.4 µM (inactive) | 20.3 µM (inactive) | 9.06 µM (inactive) | 15.8 µM (inactive) | 26.6 µM (inactive) | 16.8 µM (inactive) | 19 µM (inactive) | 5.22 µM (inactive) | 19.8 µM (inactive) | 4.06 µM (inactive) | 12.3 µM (inactive) |
| Cc1ccc(S(=O)(=O)CC2CCCn3c2c(C#N)c2ccccc23)cc1 (stereo not given) | > 100 µM (inactive) | > 100 µM (inactive) | > 100 µM (inactive) | > 100 µM (inactive) | > 100 µM (inactive) | > 100 µM (inactive) | > 100 µM (inactive) | > 100 µM (inactive) | > 100 µM (inactive) | 65.5 µM (inactive) | > 100 µM (inactive) | 54.2 µM (inactive) | > 100 µM (inactive) | > 100 µM (inactive) | > 100 µM (inactive) | > 100 µM (inactive) | 73.3 µM (inactive) | > 100 µM (inactive) | > 100 µM (inactive) | 57.4 µM (inactive) |
| COC(=O)c1ccc(/C=N/c2cc(C)nn2-c2ccccc2)cc1 | 67 µM (inactive) | 76.6 µM (inactive) | > 100 µM (inactive) | 2.79 µM (inactive) | 29 µM (inactive) | 22.5 µM (inactive) | 15.1 µM (inactive) | 8.65 µM (inactive) | 48.5 µM (inactive) | 49.3 µM (inactive) | > 100 µM (inactive) | 40.9 µM (inactive) | 49 µM (inactive) | 33.5 µM (inactive) | 21.1 µM (inactive) | 20.7 µM (inactive) | 16.4 µM (inactive) | 20.6 µM (inactive) | 6.04 µM (inactive) | 65.8 µM (inactive) |
| Cc1cccc(/C=N/NC(=S)NC2CCCCC2)n1 | 20 µM (inactive) | 28.9 µM (inactive) | 25.8 µM (inactive) | 20.7 µM (inactive) | 4.02 µM (inactive) | 23 µM (inactive) | 11.4 µM (inactive) | 33.7 µM (inactive) | 32.4 µM (inactive) | 11.9 µM (inactive) | 15.2 µM (inactive) | 6.73 µM (inactive) | 24.1 µM (inactive) | 34.8 µM (inactive) | 45.3 µM (inactive) | 9.25 µM (inactive) | 2.58 µM (inactive) | 20.5 µM (inactive) | 17.3 µM (inactive) | 21.3 µM (inactive) |
| Cc1ccc(S(=O)(=O)NN=C2C(C)(C)CC2(C)C)cc1 | > 100 µM (inactive) | > 100 µM (inactive) | > 100 µM (inactive) | > 100 µM (inactive) | > 100 µM (inactive) | > 100 µM (inactive) | > 100 µM (inactive) | > 100 µM (inactive) | > 100 µM (inactive) | > 100 µM (inactive) | > 100 µM (inactive) | > 100 µM (inactive) | > 100 µM (inactive) | > 100 µM (inactive) | 17.3 µM (inactive) | > 100 µM (inactive) | > 100 µM (inactive) | > 100 µM (inactive) | > 100 µM (inactive) | > 100 µM (inactive) |
| O=C(CC(O)(C(F)(F)F)C(F)(F)F)C(c1ccccc1)C(O)(C(F)(F)F)C(F)(F)F (stereo not given) | 31.3 µM (inactive) | 22.2 µM (inactive) | 17.4 µM (inactive) | 9.1 µM (inactive) | 16.4 µM (inactive) | 41.2 µM (inactive) | 45.7 µM (inactive) | 47.3 µM (inactive) | 6.47 µM (inactive) | 8.87 µM (inactive) | > 100 µM (inactive) | 4.15 µM (inactive) | 35.1 µM (inactive) | 18.3 µM (inactive) | 1.93 µM (inactive) | 14.4 µM (inactive) | 13.1 µM (inactive) | 5.45 µM (inactive) | 31.8 µM (inactive) | 20.5 µM (inactive) |
